In patent publication US20250268873A1, “COMBINATION OF DUAL ATM AND DNA-PK INHIBITORS AND IMMUNOTHERAPEUTIC AGENTS FOR USE IN CANCER THERAPY” (XRAD THERAPEUTICS, INC., priority 2021, published 2025):

Key:
hERG channel = hERG channel (Homo sapiens (Human), UniProt Q12809); experiment: In-Vitro hERG Inhibition Assay (manual patch clamp); assay type: cell-based; settings: hERG-T-REx HEK 293 cells
Protocol: The hERG-T-REx™ HEK 293 cells (Invitrogen, K1236) were generated by transfecting the hERG coding sequence in the Tet-regulated expression vector pT-Rex-DEST30 into cells expressing the Tet-repressor (T-Rex™ HEK293), thereby producing cells that can be induced to express high level of hERG channels. The cells were cultured in a medium containing of 85% DMEM, 10% dialyzed FBS, 0.1 mM NEAA, 25 mM HEPES, 100 U/mL Penicillin-Streptomycin, 5 μg/mL Blasticidin, and 400 μg/mL Geneticin. The cells were split using TrypLE™ Express (Gibco, 12604) about three times a week and maintained between ˜40% to ˜80% confluence. Before the assay, the cells were induced with doxycycline (Sigma, D9891) at 1 μg/mL for 48 hours. On the experiment day, the induced cells were resuspended and plated onto the coverslips at 5×10^5 cells/per 6 cm cell culture dish prior to use. The hERG channel-mediated current was acquired by manual patch clamp recording systems equipped with amplifiers (HEKA, EPC10 and Molecular Devices, multiclamp 700B) and the inverted phase contrast microscope (Olympus, IX51/71/73). Glass pipettes were prepared by micropipette puller (Sutter, P97 and Narishige, PC-10) and qualified by the pipette resistance in the range of 2-4 MOhms. […] The whole-cell configuration was maintained with access resistance continuously monitored (<15 MOhms). […]

MC38 tumors = experiment: MC38 syngeneic murine tumor model; assay type: in vivo; settings: for Day 20 regression: p<0.05
Protocol: The murine colon adenocarcinoma cell line, MC38-NCI.TD1 (MC38), was cultured in Dulbecco's modified Eagle's medium (DMEM), 10% fetal bovine serum (FBS), 25 μg/ml gentamicin, 2 mM L-glutamine, 1% penicillin/streptomycin/L-glutamine at 37° C. in 5% CO2. Cells were dissociated in 0.25% trypsin/2.21 mM ethylenediaminetetraacetic acid in Hank's Balanced Salt Solution and brought to a density of 5×10^6 cells/200 μL in DMEM. Tumors were initiated by injection of the cell suspension subcutaneously in the right axilla of female C57BL/6 mice (Jackson Laboratory). All mice were sorted into 7 study groups (n=10) based on caliper estimation of tumor burden. Mice were distributed to ensure that the mean tumor burden for all groups was within 10% of the overall mean tumor burden for the study population (90 mm^3). Mice were monitored daily for clinical signs and weighed and measured three times weekly. The study endpoint was 30 days post staging or when tumor burden was >2000 mm^3.
The vehicle for compound 569 was 0.5% hydroxypropyl methyl cellulose (HPMC) and 0.1% Tween 80 dissolved in deionized water. Vehicle for compound 569 and compound 569 (12 mg/kg) were administered by oral gavage once daily starting the day of staging for two consecutive days (qd×2), in combination with focal radiation. Mice stratified to the radiation therapy groups received 5 Gy per day for two consecutive days (qd×2) 60 minutes following administration of the vehicle or compound 569. The mice were anesthetized with isoflurane during the radiation treatment, which was performed with the Xstrahl Life Sciences Small Animal Radiation Research Platform (Xstrahl, Inc.) Mice were irradiated at an average dose rate of 2.5 Gy/min.
The vehicle for isotype control (clone 2A3) anti-mouse PD-1 (anti-mPD-1; Bio X Cell) and anti-mPD-1 (Clone RMP1-14; Bio X Cell) was phosphate buffered saline (PBS). Isotype control anti-mPD-1 (10 mg/kg) and anti-mPD-1 (10 mg/kg) were administered intraperitonealy twice weekly for 2 weeks starting day 2 post staging. Treatment schedules for the various groups of animals are summarized below: • Group 1 mice received vehicle qd×2+10 mg/kg isotype control (q3d×2, 3 days off)×2; start 2 days post stage. • Group 2 mice received 10 mg/kg anti-mPD-1 (q3d×2, 3 days off)×2; start 2 days post stage. • Group 3 mice received focal irradiation 5 Gy qd×2+10 mg/kg isotype control (q3d×2, 3 days off)×2; start 2 days post stage. • Group 4 mice received focal irradiation 5 Gy qd×2+10 mg/kg anti-mPD-1 (q3d×2, 3 days off)×2; start 2 days post stage. • Group 5 mice received 12 mg/kg Compound 569 qd×2 (1 hr prior to focal irradiation)+5 Gy qd×2 • Group 6 mice received 12 mg/kg Compound 569 qd×2+10 mg/kg anti-mPD-1 (q3d×2, 3 days off)×2; start 2 days post stage. • Group 7 mice received 12 mg/kg Compound 569 qd×2 (1 hr prior to focal irradiation)+5 Gy qd×2+10 mg/kg anti-mPD-1 (q3d×2, 3 days off)×2; start 2 days post stage.
• ΔC and ΔT—Are individual mouse endpoints that are calculated for each mouse as follows:
[formula] • Where Tt and T0 are the tumor burdens of a treated mouse at time t or at the initiation of dosing, respectively. ΔC reflects similar calculations for the control mice. • Median ΔT/ΔC—Is a group endpoint. It is calculated for each day of treatment as:
[formula] • The results are presented as a %. When the median ΔT/ΔC is negative (the median treated tumor burden is regressing), the median ΔT/ΔC is not reported and the Median % Regression is reported instead. • % Regression—Is a group endpoint. It indicates the percentage reduction in the Median tumor volume from baseline. It is calculated as: […]
Day 20 post staging was chosen for ΔT/ΔC since it was the last day all animals were on study prior to euthanasia due to tumor burden. • Complete Regression (CR)—An animal is credited a complete regression if its tumor burden is reduced to an immeasurable volume at any point after the first treatment. […]

[1] = Group 5: compound 569 12 mg/kg qd×2 + radiation 5 Gy qd×2
[2] = Group 7: compound 569 + radiation + anti-mPD-1

Sequence of hERG channel (Q12809 whole entry): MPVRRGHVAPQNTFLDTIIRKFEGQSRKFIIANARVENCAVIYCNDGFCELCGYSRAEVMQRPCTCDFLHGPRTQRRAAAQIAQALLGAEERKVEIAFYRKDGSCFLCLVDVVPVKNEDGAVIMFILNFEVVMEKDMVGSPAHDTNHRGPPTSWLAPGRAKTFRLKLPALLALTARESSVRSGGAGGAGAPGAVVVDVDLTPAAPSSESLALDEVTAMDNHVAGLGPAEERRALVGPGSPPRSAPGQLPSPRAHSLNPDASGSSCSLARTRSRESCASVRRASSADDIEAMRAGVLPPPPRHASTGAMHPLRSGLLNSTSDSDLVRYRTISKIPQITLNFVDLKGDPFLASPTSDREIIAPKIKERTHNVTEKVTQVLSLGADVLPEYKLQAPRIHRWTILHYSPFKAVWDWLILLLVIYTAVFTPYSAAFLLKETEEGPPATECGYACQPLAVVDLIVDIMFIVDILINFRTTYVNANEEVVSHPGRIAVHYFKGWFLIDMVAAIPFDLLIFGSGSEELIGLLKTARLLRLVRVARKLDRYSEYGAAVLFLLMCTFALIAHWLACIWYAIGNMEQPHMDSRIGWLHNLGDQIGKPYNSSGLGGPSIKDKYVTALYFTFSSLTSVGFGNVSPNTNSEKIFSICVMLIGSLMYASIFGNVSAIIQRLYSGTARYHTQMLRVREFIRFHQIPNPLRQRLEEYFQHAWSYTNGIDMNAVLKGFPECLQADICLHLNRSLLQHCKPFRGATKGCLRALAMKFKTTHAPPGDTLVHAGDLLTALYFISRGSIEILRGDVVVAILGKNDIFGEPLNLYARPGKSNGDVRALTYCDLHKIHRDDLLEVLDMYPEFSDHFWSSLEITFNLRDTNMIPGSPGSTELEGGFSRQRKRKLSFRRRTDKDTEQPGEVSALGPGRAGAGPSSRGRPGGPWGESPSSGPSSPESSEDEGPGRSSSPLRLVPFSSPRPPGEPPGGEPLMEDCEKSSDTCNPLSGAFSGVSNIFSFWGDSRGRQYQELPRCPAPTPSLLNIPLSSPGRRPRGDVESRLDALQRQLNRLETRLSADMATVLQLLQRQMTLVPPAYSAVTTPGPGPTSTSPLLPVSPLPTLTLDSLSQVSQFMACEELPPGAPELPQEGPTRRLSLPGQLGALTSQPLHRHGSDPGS

CC(C)NCCOc1ncc(-c2cc3c4c(cnc3cc2F)N(C)C(=O)C42CCC2)cc1NS(C)(=O)=O [Compound 569, N-(5-(7′-Fluoro-3′-methyl-2′-oxo-2′,3′-dihydrospiro[cyclobutane-1,1′-pyrrolo[2,3-c]quinolin]-8′-yl)-2-(2-(isopropylamino)ethoxy)pyridin-3-yl)methanesulfonamide]
IC50 (hERG channel): > 30 µM | incidence of complete regressions (CR) (MC38 tumors; [1]): 50% | incidence of tumor free survivors (TFS) (MC38 tumors; [1]): 30% | Day 20 regression (MC38 tumors; [1]): 22% | Day 20 median ΔT/ΔC (MC38 tumors; Group 6: compound 569 12 mg/kg po qd×2 + anti-mPD-1 10 mg/kg ip, p>0.05): 64% | incidence of death (MC38 tumors; Group 6: compound 569 12 mg/kg qd×2 + anti-mPD-1 10 mg/kg, 1 death, n=10): 10% | Day 20 regression (MC38 tumors; Group 7: compound 569 12 mg/kg qd×2 + radiation 5 Gy qd×2 + anti-mPD-1 10 mg/kg): 99% | incidence of complete regressions (CR) (MC38 tumors; [2]): 90% | incidence of tumor free survivors (TFS) (MC38 tumors; [2]): 90%
